# “Also recorded” adds a separate entry of the source.
# Experiments:
# human α4β2 = human α4β2 (Homo sapiens, UniProt P17787+P43681); test: Receptor binding α4β2, recombinant human receptors in SH-EP1 cells; details: [3H]-S-nicotine, human α4β2 expressed in SH-EP1 cells
# [1] = test system: general behavior (Irwin profile); test: CNS safety pharmacology, general behavior (Irwin profile); format: in vivo, Rat: Sprague-Dawley
# rat bone marrow = test: in vivo rat bone marrow micronucleus test
# Source text: Compound 1 was negative for mutagenicity in both in vitro bioassays—including an Ames test, a micronucleus test in mouse lymphoma cells, and a chromosome aberration assay using cultured human peripheral blood lymphocytes—and an in vivo rat bone marrow micronucleus test.
# hERG channel = hERG channel (Homo sapiens, UniProt Q12809); test: Cardiovascular safety, hERG channel in vitro; format: cell-based
# hERG channel, sequence (Q12809 whole entry): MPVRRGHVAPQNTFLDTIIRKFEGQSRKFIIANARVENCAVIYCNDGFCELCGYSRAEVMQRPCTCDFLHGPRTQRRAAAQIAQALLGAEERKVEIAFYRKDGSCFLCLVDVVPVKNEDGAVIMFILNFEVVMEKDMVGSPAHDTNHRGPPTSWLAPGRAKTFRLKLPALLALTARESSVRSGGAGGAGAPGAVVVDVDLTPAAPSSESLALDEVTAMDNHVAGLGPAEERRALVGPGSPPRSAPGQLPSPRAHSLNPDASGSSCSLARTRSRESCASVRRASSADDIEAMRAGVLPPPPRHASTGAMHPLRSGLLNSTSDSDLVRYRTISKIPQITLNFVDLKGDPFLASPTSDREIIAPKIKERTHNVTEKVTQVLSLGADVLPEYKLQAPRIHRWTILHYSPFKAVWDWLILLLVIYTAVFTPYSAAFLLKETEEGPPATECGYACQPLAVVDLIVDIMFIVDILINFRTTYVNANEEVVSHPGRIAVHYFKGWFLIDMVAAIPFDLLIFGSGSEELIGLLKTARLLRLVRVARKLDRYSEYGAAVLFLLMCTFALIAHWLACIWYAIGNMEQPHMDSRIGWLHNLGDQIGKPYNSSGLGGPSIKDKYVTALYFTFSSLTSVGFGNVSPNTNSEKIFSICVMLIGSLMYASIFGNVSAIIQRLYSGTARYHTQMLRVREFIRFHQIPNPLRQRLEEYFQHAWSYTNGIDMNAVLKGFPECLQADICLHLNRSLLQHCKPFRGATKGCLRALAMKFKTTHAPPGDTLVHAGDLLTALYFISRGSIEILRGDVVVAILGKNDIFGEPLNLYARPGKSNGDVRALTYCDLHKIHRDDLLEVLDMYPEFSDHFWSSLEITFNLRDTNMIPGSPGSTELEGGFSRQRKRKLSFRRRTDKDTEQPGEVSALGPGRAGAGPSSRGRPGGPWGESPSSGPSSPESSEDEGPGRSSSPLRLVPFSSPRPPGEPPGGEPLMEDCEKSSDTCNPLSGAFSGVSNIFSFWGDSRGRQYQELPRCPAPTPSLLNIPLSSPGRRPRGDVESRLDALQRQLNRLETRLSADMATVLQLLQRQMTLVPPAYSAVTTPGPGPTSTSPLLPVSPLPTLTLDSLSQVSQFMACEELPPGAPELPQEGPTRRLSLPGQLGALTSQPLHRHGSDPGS
# [2] = single-dose nasal spray tolerability and PK in rabbits; format: in vivo, New Zealand White rabbit; details: male rabbits
# Method: The potential toxicity and TK of Compound 1 nasal spray was assessed following a single spray (100 μL) of either 2% or 5% Compound 1 in the right nostril of male New Zealand White rabbits (N=36). Phosphate buffered solution (PBS) served as the control and was sprayed (100 μL) in the left nostril. Bioanalytical and histopathological analyses were conducted at 1, 3, 6, 9, and 24 h post-treatment. Prior to sacrifice, the intranasal/nasal area of each animal was assessed using the Draize Classification System for Scoring Skin Irritation.
# human α4β2, sequence (P43681 29-627 limits assumed): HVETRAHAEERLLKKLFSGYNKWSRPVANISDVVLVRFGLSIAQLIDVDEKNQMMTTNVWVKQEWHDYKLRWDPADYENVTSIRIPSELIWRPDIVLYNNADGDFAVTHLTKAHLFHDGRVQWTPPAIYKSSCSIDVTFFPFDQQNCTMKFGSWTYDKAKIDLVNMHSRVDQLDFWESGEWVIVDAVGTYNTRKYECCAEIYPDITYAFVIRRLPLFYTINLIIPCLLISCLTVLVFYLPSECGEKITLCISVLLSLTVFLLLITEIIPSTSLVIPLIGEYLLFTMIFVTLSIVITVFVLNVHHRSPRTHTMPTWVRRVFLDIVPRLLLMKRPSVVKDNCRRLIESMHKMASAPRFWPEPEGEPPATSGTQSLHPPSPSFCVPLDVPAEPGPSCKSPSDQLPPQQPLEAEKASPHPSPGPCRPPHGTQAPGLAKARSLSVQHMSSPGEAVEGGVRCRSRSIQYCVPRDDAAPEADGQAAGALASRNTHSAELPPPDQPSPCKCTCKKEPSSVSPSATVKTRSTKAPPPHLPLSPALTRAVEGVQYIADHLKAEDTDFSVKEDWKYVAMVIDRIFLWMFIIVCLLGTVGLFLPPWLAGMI
# human α4β2, sequence (P17787 26-502): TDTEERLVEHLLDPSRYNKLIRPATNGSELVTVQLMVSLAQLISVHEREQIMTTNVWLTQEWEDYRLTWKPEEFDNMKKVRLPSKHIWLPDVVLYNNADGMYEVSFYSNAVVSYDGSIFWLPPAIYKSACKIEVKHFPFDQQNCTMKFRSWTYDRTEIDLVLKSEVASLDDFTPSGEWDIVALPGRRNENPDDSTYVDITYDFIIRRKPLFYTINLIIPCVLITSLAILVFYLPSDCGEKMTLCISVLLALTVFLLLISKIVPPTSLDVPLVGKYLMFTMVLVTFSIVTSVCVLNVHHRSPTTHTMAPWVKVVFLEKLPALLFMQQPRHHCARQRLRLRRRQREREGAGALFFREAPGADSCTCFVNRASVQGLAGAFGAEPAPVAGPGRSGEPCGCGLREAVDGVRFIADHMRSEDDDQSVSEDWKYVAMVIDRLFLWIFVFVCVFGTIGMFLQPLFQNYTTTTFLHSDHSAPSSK
compound,measurement,setting,value
"C(=C\[C@H]1CCNC1)/c1cncnc1 [Compound 1, (R)-5-((E)-2-pyrrolidin-3-ylvinyl)pyrimidine]",Ki,human α4β2,0.017 µM
same,"NOEL, general behavior (Irwin profile)","[1]; 15, 50, 150 mg/kg po",greater than 150 mg/kg.
same,effect on general behavior (Irwin profile),"[1]; po, doses up to and including 100 mg/kg",no noteworthy changes; also recorded: Compound 1 had no effect on general
same,"mutagenicity, bone marrow micronucleus test",rat bone marrow,negative
same,IC50,hERG channel,285 µM
same,intranasal/nasal assessment (Draize),[2]; single 100 μL spray of 2% or 5%,"no signs of erythema, edema, eschar formation or discharge"
same,clinical signs,[2]; single 100 μL spray of 2% or 5% in right nostril,No clinical signs were observed
same,histopathology of the nasal cavity,"[2]; single 100 μL spray of 2% or 5%, 1 to 24 h post-treatment",no macroscopic or microscopic findings

# From patent US10709707B2, “Methods of treating ocular conditions” (Oyster Point Pharma, Inc., priority 2016, dated 2020)
